Data set [1] deals with T1, human GALR2 receptor (Homo sapiens, UniProt O43603).
T1 construct: expressed in transfected cells
T1 sequence (O43603 1-387): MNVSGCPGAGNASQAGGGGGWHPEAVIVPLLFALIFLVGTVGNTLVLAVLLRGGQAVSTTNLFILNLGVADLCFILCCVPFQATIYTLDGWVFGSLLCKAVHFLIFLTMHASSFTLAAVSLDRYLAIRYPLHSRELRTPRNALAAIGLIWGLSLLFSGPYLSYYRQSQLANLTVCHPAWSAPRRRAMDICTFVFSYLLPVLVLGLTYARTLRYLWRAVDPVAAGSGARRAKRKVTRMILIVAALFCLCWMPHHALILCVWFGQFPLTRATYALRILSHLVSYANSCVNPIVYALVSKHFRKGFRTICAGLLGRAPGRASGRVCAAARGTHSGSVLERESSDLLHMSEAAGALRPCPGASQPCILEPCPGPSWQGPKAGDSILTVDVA
The data set is described as follows: Binding affinity at the human GALR2 receptor. Particulars: Table 3a; read-out: hGALR2 Ki. An excerpt: (§1) The design of such compounds can be optimized by determining their binding affinity at the recombinant MCH1, NPY1, NPY2, Gal1, Gal2, Gal3, and 5HT2C receptors. The methods to obtain the cDNA of the receptor, express said receptors in heterologous systems, and carry out assays to determine binding affinity are described in the following publications: human NPY1 (Larhammar et al., 1992), human NPY5 (U.S. Pat. No. 5,602,024, the disclosure of which is hereby incorporated by reference in its entirety into this application), human Gall (Habert-Ortoli et al., 1994), human Gal2 (Smith et al., 1997), human Gal3 (Smith et al., 1998), and rat 5HT2C (Julius et al., 1988). Additionally, the compounds would optimally not bind at the following receptors due to possible side effects: human H1 histamine and human H2 histamine receptors; human alpha-1A adrenergic, human alpha-1D adrenergic, human alpha-2A adrenergic, human alpha-2B adrenergic, and human alpha-2C adrenergic receptors; human dopamine D1, D2, D3, D4, and D5 receptors; the β-adrenoceptor; and the human 5HT1A, human 5HT1B, human 5HT1D, human 5HT1E, human 5HT1F, human 5HT2A, rat 5HT2C, human 5HT4, human 5HT6, and human 5HT7 receptors.

Data set [2] deals with T2, human GALR1 receptor (Homo sapiens, UniProt P47211).
T2 construct: expressed in transfected cells
T2 sequence (P47211 1-349): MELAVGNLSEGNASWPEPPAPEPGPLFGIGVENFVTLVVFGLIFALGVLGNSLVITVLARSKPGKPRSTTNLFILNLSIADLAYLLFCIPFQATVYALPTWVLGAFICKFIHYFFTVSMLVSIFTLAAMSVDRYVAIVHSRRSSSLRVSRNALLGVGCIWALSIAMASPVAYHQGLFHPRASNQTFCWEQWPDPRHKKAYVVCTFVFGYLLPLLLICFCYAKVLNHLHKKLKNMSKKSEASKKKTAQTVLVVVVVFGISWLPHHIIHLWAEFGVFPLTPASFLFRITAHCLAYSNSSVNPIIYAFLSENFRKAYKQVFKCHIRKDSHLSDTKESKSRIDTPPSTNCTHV
Nature of the data set: Binding affinity at the human GALR1 receptor. As to conditions: read-out: hGALR1 Ki.
Source text: as §1

Data set [3] deals with T3, human MCH1 receptor (Homo sapiens, UniProt Q99705). The data set is described as follows: Competition binding, membrane preparations of A293 cells expressing the human MCH1 receptor, [3H] Compound 10 as radioligand. Set-up: expressed in transfected cells. As to conditions: Table 3b; A293 cell membranes, [3H] Compound 10; read-out: hMCH1* Ki. Here is the method: TRITIATED METHYL (4S)-3-{[(3-{4-[3-(ACETYLAMINO)PHENYL]-1-[…]}PROPYL)AMINO]CARBONYL}-4-(3,4-DIFLUOROPHENYL)-6-(METHOXYMETHYL)-2-OXO-1,2,3,4-TETRAHYDRO-5-PYRIMIDINECARBOXYLATE ([^3H] COMPOUND 10): This radiochemical synthesis was carried out by Amersham Pharmacia Biotech, Cardiff, Wales. A methanolic solution of methyl (4S)-3-({[3-(4-[3-(acetylamino)phenyl]-3,6-dihydro-1(2H)pyridinyl)propyl]amino}carbonyl)-4-(3,4-difluorophenyl)-6-(methoxymethyl)-2-oxo-1,2,3,4-tetrahydro-5-pyrimidinecarboxylate was exposed to tritium gas at 1 atmosphere pressure in the presence of 5% palladium on carbon with stirring overnight to give the tritiated methyl (4S)-3-{[(3-{4-[3-(acetylamino)phenyl]-1-piperidinyl}propyl)amino]carbonyl}-4-(3,4-difluorophenyl)-6-(methoxymethyl)-2-oxo-1,2,3,4-tetrahydro-5-pyrimidinecarboxylate ((+)-isomer) After purification by reverse phase HPLC (Hypersil ODS, 4.6×100 mm, methanol:H2O:Et3N 10:90:1 to 100:0:1 in 15 min at 1.0 mL/min, with radiochemical and UV detection), this product was used as a radioligand in the MCH1 binding assays. The same procedure was carried out with H2 gas in place of ^3H2 to afford the non-radioactive version of Compound 10.

Data set [4] deals with T3, human MCH1 receptor. The data set is described as follows: Intracellular calcium response to MCH in COS-7 cells transfected with MCH1 (fluo-3, FLIPR): antagonist potency. Type of data set: cell-based. Further details: expressed in transfected cells; host or cells: COS-7. Particulars: read-out: Kb (nM) hMCH1. From the text:
MCH1 antagonist compounds were identified by their ability to inhibit the MCH-elicited response. […]. From the IC50 values, the antagonist potency (Kb)was derived using the Cheng-Prussof correction (Lazareno and Birdsall, 1993). […]
In general terms: Calcium flux is commonly read through the fluorescence of an indicator in the cells.

Data set [5] addresses T4, rat 5HT2C receptor (Rattus norvegicus, UniProt P08909).
T4 construct: expressed in transfected cells
T4 sequence (P08909 33-460): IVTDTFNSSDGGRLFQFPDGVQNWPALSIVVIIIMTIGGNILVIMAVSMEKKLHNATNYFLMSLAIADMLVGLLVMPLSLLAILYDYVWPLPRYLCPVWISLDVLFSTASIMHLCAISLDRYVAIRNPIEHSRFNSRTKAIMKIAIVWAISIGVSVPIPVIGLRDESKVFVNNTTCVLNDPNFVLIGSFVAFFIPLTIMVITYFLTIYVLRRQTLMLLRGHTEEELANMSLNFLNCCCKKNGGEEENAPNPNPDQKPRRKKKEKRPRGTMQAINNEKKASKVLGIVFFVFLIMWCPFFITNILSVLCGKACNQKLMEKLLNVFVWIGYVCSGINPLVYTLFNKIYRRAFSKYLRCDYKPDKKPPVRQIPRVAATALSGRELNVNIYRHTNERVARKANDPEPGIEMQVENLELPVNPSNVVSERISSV
Nature of the data set: Binding affinity at the rat 5HT2C receptor. As to conditions: Table 3a; read-out: r5HT2C Ki.
Source text: as §1
Other 5HT Receptors: Other serotonin receptor binding assays were performed according to published methods: rat 5HT2C receptor (Julius et al., 1988); and 5HT6 (Monsma, et al., 1993). The binding assays using the 5HT4 receptor were performed according to the procedures described in U.S. Pat. No. 5,766,879, the disclosure of which is hereby incorporated by reference in its entirety into this application.

Data set [6] has as its target T5, human GALR3 receptor (Homo sapiens, UniProt O60755).
T5 construct: expressed in transfected cells
T5 sequence (O60755 1-368): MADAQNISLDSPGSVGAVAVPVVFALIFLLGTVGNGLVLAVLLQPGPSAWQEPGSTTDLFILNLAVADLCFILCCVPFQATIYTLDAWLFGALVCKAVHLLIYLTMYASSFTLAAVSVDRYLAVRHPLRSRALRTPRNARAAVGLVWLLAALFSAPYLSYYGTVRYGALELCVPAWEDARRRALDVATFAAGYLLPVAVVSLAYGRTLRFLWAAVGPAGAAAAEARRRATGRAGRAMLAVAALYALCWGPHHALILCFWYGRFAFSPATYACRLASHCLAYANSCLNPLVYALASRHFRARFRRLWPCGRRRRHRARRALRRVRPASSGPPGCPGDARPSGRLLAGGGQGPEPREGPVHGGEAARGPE
The data set is described as follows: Binding affinity at the human GALR3 receptor. As to conditions: read-out: hGALR3 Ki.
Source text: as §1

For data set [7], the system named is micturition reflex, conscious male Sprague Dawley rats. Nature of the data set: Continuous Slow Transvesicular Infusion (CSTI) rat model. It is filed as in vivo. Further details: key to Effect of MCH1 antagonist in the CSTI model: B = Produced an increase in bladder capacity in rats relative to baseline capacity. As to conditions: bladder capacity, intragastric. The method, then:
The effects of compounds on the micturition reflex were assessed in the “distension-induced rhythmic contraction” (DIRC), as described in previous publications (e.g. Maggi et al, 1987; Morikawa et al, 1992), and Continuous Slow Transvesicular Infusion (CSTI) models in rats. Male Sprague Dawley rats weighing approximately 300 g were used for the study. Rats were anaesthetized with pentobarbitone sodium (50 mg/kg, i.p). Through a median abdominal incision, bladder was exposed and a polyethylene cannula (PE 50) was introduced into the bladder through a small cut on the dome of the bladder and the cannula was secured with a purse string suture. The other end of the cannula was exteriorized subcutaneously at the dorsal neck area. Similarly, another cannula (PE 50) was introduced into the stomach through a paramedian abdominal incision with the free end exteriorized subcutaneously to the neck region. The surgical wounds were closed with silk 4-0 suture and the animal was allowed to recover with appropriate post surgical care. On the following day, the animal was placed in a rat restrainer. The open end of the bladder cannula was connected to a pressure transducer as well as infusion pump through a three-way stopcock. The bladder voiding cycles were initiated by continuous infusion of normal saline at the rate of 100 ul/min. The repetitive voiding contractions were recorded on a Power Lab on-line data acquisition software. After recording the basal voiding pattern for an hour, the test drug or vehicle was administered directly into stomach through the intragastric catheter and the voiding cycles were monitored for 5 hours. Micturition pressure and frequency were calculated before and after the treatment (at every 30 min interval) for each animal. Bladder capacity was calculated from the micturition frequency, based on the constant infusion of 100 ul/min. The effect of the test drug was expressed as a percentage of basal, pre-drug bladder capacity. WAY 100635 was used as positive control for comparison.

The target of data set [8] is T6, rat MCH1 receptor (Rattus norvegicus, UniProt P97639).
T6 construct: expressed in transfected cells
The data set is described as follows: Binding affinity (Ki) at the rat MCH1 receptor. As to conditions: Examples 142-153; read-out: Ki (nM) rMCH1.

Structures can show the parent of a compound that is named as a salt. Where two headings read alike, the source gives them in different places. Bounds are passed on as bounds.

T6 sequence (P97639 whole entry): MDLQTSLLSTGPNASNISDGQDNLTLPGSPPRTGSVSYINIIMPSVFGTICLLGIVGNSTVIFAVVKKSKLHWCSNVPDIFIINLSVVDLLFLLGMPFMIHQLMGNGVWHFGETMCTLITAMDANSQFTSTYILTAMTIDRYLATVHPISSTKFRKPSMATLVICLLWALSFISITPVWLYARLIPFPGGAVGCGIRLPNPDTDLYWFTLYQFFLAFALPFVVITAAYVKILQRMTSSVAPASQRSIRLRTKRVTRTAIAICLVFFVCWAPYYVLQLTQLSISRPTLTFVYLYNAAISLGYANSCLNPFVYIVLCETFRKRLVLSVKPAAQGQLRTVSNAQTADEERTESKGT
T3 sequence (Q99705 whole entry): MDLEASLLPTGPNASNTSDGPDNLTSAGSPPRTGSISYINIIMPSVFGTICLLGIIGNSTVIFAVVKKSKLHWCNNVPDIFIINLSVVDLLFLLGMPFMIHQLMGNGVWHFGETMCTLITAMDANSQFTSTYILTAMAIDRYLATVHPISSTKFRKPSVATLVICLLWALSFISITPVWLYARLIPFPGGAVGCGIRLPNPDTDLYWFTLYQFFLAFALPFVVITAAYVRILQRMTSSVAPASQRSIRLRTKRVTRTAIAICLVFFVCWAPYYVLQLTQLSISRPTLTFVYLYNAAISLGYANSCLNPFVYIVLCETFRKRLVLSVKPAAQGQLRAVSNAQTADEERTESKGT

A word on the melting point: it is the temperature of the solid-liquid transition. Broadly, the Ki is a measure of affinity in units of concentration, obtained from inhibition or displacement. As a reminder, the Kb is the affinity of an antagonist, worked out from how it opposes an agonist. On to `COCC1=C(C(=O)OC)C(c2ccc(F)c(F)c2)N(C(=O)NCCCN2CCC(c3cccc4ccccc34)CC2)C(=O)N1` (single isomer, unassigned; (+)) [Example 14, (+)-1,2,3,6-TETRAHYDRO-1-{N-[4-(1-NAPHTHYL)-PIPERIDIN-1-YL]PROP-YL}CARBOXAMIDO-4-METHOXYMETHYL-6-(3,4-DIFLUOROPHENYL)-2-OXO-PYRIMIDINE-5-CARBOXYLIC ACID METHYL ESTER], for which the melting point was in the range of 168 to 172 °C. Further, the Ki in data set [1] was found to be 42600 nM. Also, the Ki in [2] (Table 3a) is above 50000 nM. In data set [2] (Table 3b), the Ki was above 50000 nM. For the same molecule, the Ki in data set [3] was found to be 50 nM. In addition, the Kb in data set [4] stood at 2 nM. Moreover, the Ki in data set [5] stood at 663 nM. Further, in [6] (Table 3a), the Ki was above 50000 nM. The Ki in data set [6] (Table 3b) is above 50000 nM.

Turning to `COc1ccc2[nH]c(-c3ccccc3)c(CCCN3CCC(c4cccc(NC(=O)C(C)C)c4)CC3)c2c1` [Example 147], in data set [7], the “Effect of MCH1 antagonist in the CSTI model” value (“Effect of MCH1 antagonist” for short) was “B”. Also, in data set [8], the Ki stood at 2.3 nM.

As to `CCn1c2ccccc2c2cc(CN3CCC(c4cccc(NC(=O)C(C)C)c4)CC3)ccc21` [Example 148], in [7], the “Effect of MCH1 antagonist” value is recorded as “B”. In addition, the Ki in [8] was determined as 1.7 nM.

As for `Cc1ccc(NC(=O)C(C)C)cc1C1CCN(Cc2ccc(Oc3ccc(F)c(F)c3)cc2)CC1` [Example 152], the “Effect of MCH1 antagonist” value in data set [7] was “B”. Also, the Ki in [8] was found to be 2.2 nM.

On to `CC(C)C(=O)Nc1cccc(C2CCN(CCCNC(=O)C(c3ccccc3)c3ccccc3)CC2)c1` [Example 153], for which the “Effect of MCH1 antagonist” value in data set [7] is “B”. In addition, the Ki in [8] worked out at 2.9 nM.

On to `CC(=O)C1=C(C)NC(=O)N(C(=O)NCCCN2CCC(c3cccc(NC(=O)C(C)C)c3)CC2)[C@H]1c1cc(F)c(F)c(F)c1` [Example 155, (+)-5-ACETYL-N-(3-{4-[3-(ISOBUTYRYLAMINO)PHENYL]-1-PIPERIDINYL}PROPYL)-4-METHYL-2-OXO-6-(3,4,5-TRIFLUOROPHENYL)-3,6-DIHYDRO-1(2H)-PYRIMIDINECARBOXAMIDE. HYDROCHLORIDE SALT], for which, in data set [7], the “Effect of MCH1 antagonist” value was “B”.

The record behind these values is patent US20040038855A1 (priority 1999, published 2004).
